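A five-concentration, 48-hour dose response in 96-well plates underlies each endpoint, interpolated linearly between surrounding concentrations. Here, GI50 denotes the concentration required for 50% inhibition of growth.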 Calls of active or inactive are those of the source. Cut-off read from the data, not from the text of the source: active = GI50 up to about 1.1 µM and inactive = higher.
How the values were obtained:
Assay in all cases: NCI tumour cell line growth inhibition, 48 h
[1] = test system: A498
[2] = test system: ACHN
[3] = test system: DU-145
[4] = test system: EKVX
[5] = test system: HCT-15
[6] = test system: MDA-MB-231
[7] = test system: MDA-MB-435
[8] = test system: MDA-N
[9] = test system: MOLT-4
[10] = test system: NCI-H522
[11] = test system: PC-3
[12] = test system: SF-268
[13] = test system: SF-295
[14] = test system: SK-MEL-28
[15] = test system: SK-OV-3
[16] = test system: SR
[17] = test system: UACC-257
[18] = test system: UACC-62
[19] = test system: SF-539
[20] = test system: Malme-3M

Structure (SMILES) | GI50 [1] | GI50 [2] | GI50 [3] | GI50 [4] | GI50 [5] [µM] | GI50 [6] | GI50 [7] | GI50 [8] | GI50 [9] | GI50 [10] | GI50 [11] | GI50 [12] | GI50 [13] | GI50 [14] | GI50 [15] | GI50 [16] | GI50 [17] | GI50 [18] | GI50 [19] | GI50 [20]
CN1C(=O)[C@@]2(C=CC3(CC2)OCCO3)c2ccccc21 | > 50 µM (inactive) | 49.5 µM (inactive) | > 50 µM (inactive) | 49.2 µM (inactive) | > 48.2 | > 50 µM (inactive) | > 45 µM (inactive) | > 50 µM (inactive) | > 46.3 µM (inactive) | 8.53 µM (inactive) | > 45.4 µM (inactive) | 10.3 µM (inactive) | > 50 µM (inactive) | > 50 µM (inactive) | > 50 µM (inactive) | > 50 µM (inactive) | > 50 µM (inactive) | > 50 µM (inactive) |  | 
C(=N/Nc1ccc(-c2nc3ccccc3[nH]2)cc1)/c1c(-c2ccccc2)[nH]c2ccccc12 | 0.516 µM (active) | 0.575 µM (active) | 0.733 µM (active) | 3.16 µM (inactive) | 0.409 | 0.475 µM (active) | 0.0471 µM (active) | 0.0303 µM (active) | 0.658 µM (active) | 0.34 µM (active) | 0.311 µM (active) | 0.647 µM (active) | 0.294 µM (active) | 0.638 µM (active) | 0.32 µM (active) | 0.12 µM (active) | 0.678 µM (active) |  | 0.444 µM (active) | 
Cn1c(=O)c2c(nc(-n3nc(-c4ccc(Cl)cc4)cc3N)n2C)n(C)c1=O | > 100 µM (inactive) | > 100 µM (inactive) | > 100 µM (inactive) | > 100 µM (inactive) | > 100 | > 100 µM (inactive) | > 100 µM (inactive) | > 100 µM (inactive) | 11.6 µM (inactive) |  | > 100 µM (inactive) | 9.91 µM (inactive) | 25.5 µM (inactive) | > 100 µM (inactive) | 18.1 µM (inactive) | 13 µM (inactive) | > 100 µM (inactive) | 65.6 µM (inactive) | 17.3 µM (inactive) | 7.13 µM (inactive)
Cc1cccc2c(=O)c3cccc([C@@H](C)C(=O)O)c3oc12 | > 100 µM (inactive) | > 100 µM (inactive) | > 100 µM (inactive) | > 100 µM (inactive) | > 100 | > 100 µM (inactive) | > 100 µM (inactive) | > 100 µM (inactive) | > 100 µM (inactive) | > 100 µM (inactive) | > 100 µM (inactive) | > 100 µM (inactive) | > 100 µM (inactive) | > 100 µM (inactive) | > 100 µM (inactive) | > 100 µM (inactive) | > 100 µM (inactive) | > 10 µM (inactive) | > 100 µM (inactive) | 
COC(C/C(=C/CO[Si](C(C)C)(C(C)C)C(C)C)C(=O)N(COCC[Si](C)(C)C)c1ccccc1I)OC | > 100 µM (inactive) | 20.6 µM (inactive) | > 100 µM (inactive) |  | 41.1 | > 100 µM (inactive) | 5.53 µM (inactive) | 37.4 µM (inactive) | 16.2 µM (inactive) |  | 28.4 µM (inactive) |  | 4.58 µM (inactive) | 14 µM (inactive) | > 100 µM (inactive) | > 100 µM (inactive) | 20 µM (inactive) | 15.6 µM (inactive) |  | 
COc1cc2c(c(OC)c1OC)-c1ccc(=O)c(O)cc1[C@@H](NC(C)=O)CC2 [COLCHICEINE] | 18.4 µM (inactive) | 18.1 µM (inactive) | 27.6 µM (inactive) | 19.7 µM (inactive) | 10.7 | 15.4 µM (inactive) | 18.4 µM (inactive) | 16.9 µM (inactive) | 5.42 µM (inactive) | 12.2 µM (inactive) | 17.8 µM (inactive) | 25.7 µM (inactive) | 22.2 µM (inactive) | 42.5 µM (inactive) | 40.5 µM (inactive) | 2.99 µM (inactive) | 21.2 µM (inactive) | 13.2 µM (inactive) | 19.1 µM (inactive) | 

Source: ChEMBL document CHEMBL1201862, “PubChem BioAssay data set” (2004)
